The values below come from ChEMBL document CHEMBL3217729, “Sangamides, a new class of cyclophilin-inhibiting host-targeted antivirals for treatment of HCV infection” (Medchemcomm, 2012).

In brackets after ≈: the same amount, converted by molar mass. Activity calls are given as the source filed them. Some results are limits rather than exact numbers.

One data set concerns PBMC. In words: Immunosuppressive activity in human PBMC isolated from two individuals assessed as inhibition of proliferation using [3H]thymidine by mixed lymphocyte reaction assay. The data set is classed as cell-based.
Data set [1] can be described thus: Percentage bound in human plasma at 1 uM after 5 hrs by dialysis chamber method. Particulars: read-out: PPB (converted). In kind it is ADME, cell-free.
The subject of data set [2] is Hepatitis C virus. In words: Antiviral activity against Hepatitis C virus genotype 1b I389luc-ubi-neo/NS3-3'/5.1 subgenomic replicon infected in human Huh5-2 cells after 4 days by luciferase assay. In kind it is functional, cell-based, Hepacivirus hominis. The note with it: Huh-5-2, 96 h.
The test system of data set [3] is Hepatitis C virus. In words: Antiviral activity against Hepatitis C virus genotype 1b Con1 infected in human Huh7 cells assessed as decrease in subgenomic RNA level after 72 hrs by RT-PCR analysis. Particulars: genotype 1b Con1, Huh-7, 72 h. In kind it is functional, cell-based, Hepacivirus hominis.
Another data set can be described thus: physchem. The note with it: n-octanol/potassium phosphate buffer, pH 7.4.
Another data set can be described thus: in vitro. The note with it: mouse, liver microsomes. On the technique in general: Liver microsomes are vesicles of endoplasmic reticulum, rich in cytochrome P450 enzymes.
The nature of data set [4]: Half life in human hepatocytes at 1 uM by LC-MS/MS analysis. The data set is classed as ADME, cell-based, Hepatocyte.
Data set [5] in a line: Cytostatic activity against human Huh5-2 cells assessed as decrease in cell proliferation after 3 days by MTS method. The data set is classed as ADME, cell-based, Huh-5-2. (Formazan colour is commonly taken as a measure of viable cells.)
For data set [6], the system named is Hepatitis C virus. Briefly: Antiviral activity against Hepatitis C virus genotype 2a JFH-1 infected in human Huh7 cells assessed as decrease in subgenomic RNA level after 72 hrs by RT-PCR analysis. Particulars: genotype 2a JFH-1, Huh-7, 72 h. The data set is classed as functional, cell-based, Hepacivirus hominis.
Data set [7] has as its system Hepatitis C virus. Briefly: Antiviral activity against Hepatitis C virus genotype 1a H77 infected in human Huh7 cells assessed as decrease in subgenomic RNA level after 72 hrs by RT-PCR analysis. The data set is classed as functional, cell-based, Hepacivirus hominis. The note with it: genotype 1a H77, Huh-7, 72 h.
A short description of data set [8]: Half life in human liver microsomes at 1 uM by LC-MS/MS analysis. In kind it is ADME.
Data set [9] in a line: Solubility of the compound in phosphate buffered saline at pH 7.4 after 4 hrs by LC-MS/MS analysis.
The target in data set [10] is T1, ATP-binding cassette sub-family C member 2 (Homo sapiens, UniProt Q92887). Briefly: Inhibition of ATPase activity of MRP2 (unknown origin) expressed in membrane assessed as amount of phosphate released using probenecid as substrate at 14 uM by molybdenum blue assay.
T1 sequence (Q92887 whole entry): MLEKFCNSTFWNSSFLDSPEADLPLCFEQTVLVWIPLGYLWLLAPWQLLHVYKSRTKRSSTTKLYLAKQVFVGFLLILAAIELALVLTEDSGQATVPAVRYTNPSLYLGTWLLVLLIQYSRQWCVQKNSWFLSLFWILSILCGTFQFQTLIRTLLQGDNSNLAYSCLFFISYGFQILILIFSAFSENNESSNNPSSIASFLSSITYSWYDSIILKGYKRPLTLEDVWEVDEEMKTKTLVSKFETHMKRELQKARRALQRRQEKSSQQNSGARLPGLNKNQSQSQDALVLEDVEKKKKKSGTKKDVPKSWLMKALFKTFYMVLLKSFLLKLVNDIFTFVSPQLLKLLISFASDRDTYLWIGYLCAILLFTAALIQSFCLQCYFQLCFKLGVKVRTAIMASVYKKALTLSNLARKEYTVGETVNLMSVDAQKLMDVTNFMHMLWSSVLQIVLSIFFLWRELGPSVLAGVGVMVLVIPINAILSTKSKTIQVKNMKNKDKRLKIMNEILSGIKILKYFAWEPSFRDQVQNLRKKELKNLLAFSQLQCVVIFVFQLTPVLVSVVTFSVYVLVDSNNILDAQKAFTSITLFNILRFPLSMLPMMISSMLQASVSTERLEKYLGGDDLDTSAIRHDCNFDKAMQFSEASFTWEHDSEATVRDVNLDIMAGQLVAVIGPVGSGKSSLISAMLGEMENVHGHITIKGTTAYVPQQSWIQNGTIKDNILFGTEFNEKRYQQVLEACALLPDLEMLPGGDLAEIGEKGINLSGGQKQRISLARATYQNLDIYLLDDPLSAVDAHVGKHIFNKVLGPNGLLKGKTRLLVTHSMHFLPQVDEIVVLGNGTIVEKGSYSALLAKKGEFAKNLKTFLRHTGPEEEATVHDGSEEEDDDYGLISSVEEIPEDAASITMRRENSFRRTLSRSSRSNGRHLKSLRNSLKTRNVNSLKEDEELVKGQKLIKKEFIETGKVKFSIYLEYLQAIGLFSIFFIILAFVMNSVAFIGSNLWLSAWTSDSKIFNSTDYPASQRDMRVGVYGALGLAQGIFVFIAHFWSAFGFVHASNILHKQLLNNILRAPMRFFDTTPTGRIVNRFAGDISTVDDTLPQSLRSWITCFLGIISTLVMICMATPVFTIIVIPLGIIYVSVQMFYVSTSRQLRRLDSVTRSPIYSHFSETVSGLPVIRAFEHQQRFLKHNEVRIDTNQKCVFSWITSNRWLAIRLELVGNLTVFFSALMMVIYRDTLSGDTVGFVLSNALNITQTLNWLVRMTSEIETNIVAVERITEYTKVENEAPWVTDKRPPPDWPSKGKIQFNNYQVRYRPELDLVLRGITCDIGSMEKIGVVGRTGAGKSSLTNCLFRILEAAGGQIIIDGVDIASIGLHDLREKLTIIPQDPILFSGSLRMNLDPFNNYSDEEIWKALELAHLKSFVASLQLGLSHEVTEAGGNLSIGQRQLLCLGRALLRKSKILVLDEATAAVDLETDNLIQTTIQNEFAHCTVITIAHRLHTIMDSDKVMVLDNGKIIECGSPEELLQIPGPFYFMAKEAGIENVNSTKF
The target of data set [11] is T2, Peptidyl-prolyl cis-trans isomerase A (Homo sapiens, UniProt P62937). Briefly: Inhibition of PPIase activity of recombinant CypA (unknown origin) assessed as chymotrypsin-mediated N-succinyl-Ala-Ala-Pro-Phe-p-nitroanilide hydrolysis after 1 hr by spectrophotometric analysis.
T2 sequence (P62937 whole entry): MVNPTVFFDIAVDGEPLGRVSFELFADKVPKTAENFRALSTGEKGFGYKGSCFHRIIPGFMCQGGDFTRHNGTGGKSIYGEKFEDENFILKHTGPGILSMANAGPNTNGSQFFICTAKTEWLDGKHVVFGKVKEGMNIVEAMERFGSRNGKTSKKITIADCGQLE
For data set [12], the target named is T2, Peptidyl-prolyl cis-trans isomerase A. Briefly: Inhibition of recombinant GST-tagged CypA (unknown origin)/HCV Con1 NS5A-His interaction after 16 hrs by ELISA. Background: ELISA stands for enzyme-linked immunosorbent assay.
Data set [13] can be described thus: Selectivity index, ratio of CC50 for human Huh5-2 cells to EC50 for Hepatitis C virus genotype 1b I389luc-ubi-neo/NS3-3'/5.1 subgenomic replicon infected in human Huh5-2 cells. The note with it: read-out: Ratio CC50/EC50. The data set is classed as toxicity, cell-based, Huh-5-2.
Data set [14] can be described thus: Ratio of drug level in liver to blood in CD-1 mouse at 5 mg/kg, po administered as single dose measured for 24 hrs post-dose by LC-MS/MS analysis. More on the design: dose 5 mg/kg, route oral. The data set is classed as ADME, organism-based. Particulars: liver and blood.
The next data set relates to Liver. In words: Drug level in CD-1 mouse liver at 5 mg/kg, po administered as single dose measured per gm of tissue for 24 hrs post-dose by LC-MS/MS analysis. The data set is classed as ADME, organism-based. More on the design: dose 5 mg/kg, route oral. Particulars: in vivo.
In data set [15] the target is T1, ATP-binding cassette sub-family C member 2. Briefly: Inhibition of ATPase activity of MRP2 (unknown origin) expressed in membrane assessed as amount of phosphate released using probenecid as substrate up to 50 uM by molybdenum blue assay.
The subject of data set [16] is Hepatitis C virus. Briefly: Antiviral activity against Hepatitis C virus genotype 1b Con1 infected in human Huh7 cells assessed as viral rebound by measuring replicon RNA content at 0.5 to 1 uM after drug removal by RT-qPCR analysis. The data set is classed as functional, cell-based. The note with it: Hepacivirus hominis, Huh-7.
Data set [17] is described as follows: Drug level in CD-1 mouse blood at 5 mg/kg, po administered as single dose measured for 24 hrs post-dose by LC-MS/MS analysis. More on the design: dose 5 mg/kg, route oral. The data set is classed as ADME, organism-based. Particulars: read-out: Drug uptake.
Data set [18] addresses ATP-dependent translocase ABCB1 (Homo sapiens, UniProt P08183). In words: Inhibition of MDR1 (unknown origin) expressed in MDCK1 cells assessed as reduction of loperamide substrate permeability up to 50 uM after 60 mins by LC-MS/MS analysis. In kind it is ADME, cell-based. Particulars: mdck1, 1 h.

ATP-dependent translocase ABCB1, sequence (P08183 whole entry): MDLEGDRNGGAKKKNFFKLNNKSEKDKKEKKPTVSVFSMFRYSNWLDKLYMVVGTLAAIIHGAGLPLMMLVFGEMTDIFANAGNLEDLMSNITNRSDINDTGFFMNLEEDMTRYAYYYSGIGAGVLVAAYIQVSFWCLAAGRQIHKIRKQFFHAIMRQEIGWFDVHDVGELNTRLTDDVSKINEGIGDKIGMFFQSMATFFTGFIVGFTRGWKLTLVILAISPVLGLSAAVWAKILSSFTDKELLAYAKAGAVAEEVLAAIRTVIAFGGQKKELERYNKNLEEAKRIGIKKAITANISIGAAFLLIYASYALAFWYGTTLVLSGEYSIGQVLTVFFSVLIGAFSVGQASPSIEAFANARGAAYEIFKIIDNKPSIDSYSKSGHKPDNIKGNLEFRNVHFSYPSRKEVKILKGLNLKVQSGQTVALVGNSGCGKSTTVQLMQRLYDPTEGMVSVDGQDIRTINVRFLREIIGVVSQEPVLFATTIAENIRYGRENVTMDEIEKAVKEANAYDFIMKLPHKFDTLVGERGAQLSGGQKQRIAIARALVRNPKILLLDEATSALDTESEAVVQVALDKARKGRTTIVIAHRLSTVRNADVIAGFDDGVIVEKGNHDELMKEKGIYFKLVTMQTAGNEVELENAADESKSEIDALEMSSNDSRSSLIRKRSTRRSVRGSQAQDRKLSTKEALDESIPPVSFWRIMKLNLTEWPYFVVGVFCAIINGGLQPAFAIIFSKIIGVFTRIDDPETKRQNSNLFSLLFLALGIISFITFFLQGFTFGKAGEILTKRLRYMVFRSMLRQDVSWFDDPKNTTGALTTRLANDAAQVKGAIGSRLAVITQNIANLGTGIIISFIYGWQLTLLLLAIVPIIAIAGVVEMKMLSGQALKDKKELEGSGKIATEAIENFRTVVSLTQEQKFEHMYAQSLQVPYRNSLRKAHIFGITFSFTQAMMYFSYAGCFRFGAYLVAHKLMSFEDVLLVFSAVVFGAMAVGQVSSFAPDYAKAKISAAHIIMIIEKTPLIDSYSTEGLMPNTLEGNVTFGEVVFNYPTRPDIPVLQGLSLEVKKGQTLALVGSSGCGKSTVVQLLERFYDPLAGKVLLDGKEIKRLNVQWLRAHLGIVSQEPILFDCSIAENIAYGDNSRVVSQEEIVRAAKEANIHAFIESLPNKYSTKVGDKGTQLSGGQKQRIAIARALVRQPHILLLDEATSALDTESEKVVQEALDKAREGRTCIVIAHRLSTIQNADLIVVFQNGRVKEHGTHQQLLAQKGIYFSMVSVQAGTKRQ
Description for in vitro: Half life in mouse liver microsomes at 1 uM by LC-MS/MS analysis

For orientation: IC50 means the midpoint of a concentration-inhibition curve. As usually defined, the EC50 is the midpoint of the concentration-response curve. What is called EC90 is the concentration needed for an effect of 90%. High values mean a need for much substance, low ones an effect from little substance. Broadly, the logD is the decadic logarithm of the distribution of all forms, ionised or not, between an organic phase and buffer at a given pH. A low value points to lower lipophilicity. The half-life is the time needed for the level to fall by half in the phase considered. A lower half-life goes with rapid decline. As a reminder, the CC50 is the concentration at which the toxic effect on the cells reaches its halfway point. Broadly, the solubility is the concentration that dissolves in the medium under given conditions. Read a low solubility as a poorly soluble substance. `CC[C@H]1C[C@H](C)[C@@]2(NC1=O)O[C@@H](C[C@H](O)[C@@H](C)CC/C=C/C=C(\C)[C@@H]1C/C=C/C=C/[C@H](O)[C@H](C)[C@@H](O)[C@@H](CCC(C)=O)C(=O)N[C@@H](C(C)C)C(=O)N[C@@H](Cc3cccc(O)c3)C(=O)N3CCCC(N3)C(=O)O1)[C@H](C)[C@H](O)[C@@H]2C` (stereo partly specified): the IC50 in the data set on PBMC was determined as 215 nM. Besides, in data set [1], the fraction unbound at 5 h, 1 µM is < 0.01. In addition, the EC50 in the data set on Hepatitis C virus [2] worked out at 318 nM; with Hepatitis C virus [3] it was 222 nM; with Hepatitis C virus [6] it was 247 nM; in the data set on Hepatitis C virus [7], 301 nM. The EC90 in the data set on Hepatitis C virus [2] came out at 5500 nM. The logD at 1 h in “physchem” is > 3.7. Besides, the half-life at 1 µM was 4 min in “in vitro”, 145 min in [4] and 7.9 min in [8]. Further, the CC50 at 72 h in [5] worked out at 9100 nM. For the same compound, the solubility at 4 h in data set [9] is 45 µM (≈ 49.1 µg/mL).
With `CCc1oc2ccccc2c1C(=O)c1cc(Br)c(O)c(Br)c1` [BENZBROMARONE], the “inhibition (INH)” value in data set [10] is on record as “Active”.
Turning to `CON(C)C(=O)/C=C/C=C(\C)[C@@H]1C/C=C/C=C/[C@H](O)[C@H](C)[C@@H](O)[C@@H](CCC(C)=O)C(=O)N[C@@H](C(C)C)C(=O)N[C@@H](Cc2cccc(O)c2)C(=O)N2CCCC(N2)C(=O)O1` (stereo partly specified), the IC50 in the data set with PBMC is 1060 nM; in [11], 1.1 nM; in data set [12] it was 200 nM. The fraction unbound at 5 h, 1 µM in data set [1] was 0.73. For the same compound, the EC50 stood at 162 nM with Hepatitis C virus [2], 128 nM in the data set with Hepatitis C virus [3], 247 nM in the data set with Hepatitis C virus [6] and 156 nM in the data set on Hepatitis C virus [7]. This compound also displayed an EC90 in the data set on Hepatitis C virus [2] of 920 nM. The compound further showed a pH-dependent lipophilicity (logD) at 1 h in the data set “physchem” of 2.3. The values for the half-life at 1 µM (in “in vitro”; in data set [4]; in data set [8]) were 17.5 min, > 240 min and 26.5 min, respectively. Besides, the CC50 at 72 h in data set [5] was > 100000 nM. The selectivity ratio in [13] is > 617. In addition, the solubility at 4 h in data set [9] was > 100 µM.
With `CC(=O)CC[C@H]1C(=O)N[C@@H](C(C)C)C(=O)N[C@@H](Cc2cccc(O)c2)C(=O)N2CCCC(N2)C(=O)O[C@H](/C(C)=C/C=C/C(=O)Nc2ccccn2)C/C=C/C=C/[C@H](O)[C@H](C)[C@H]1O` (stereo in doubt), the IC50 in [11] was 4.1 nM; in [12], 390 nM. In the data set with Hepatitis C virus [2], this compound displayed an EC50 of 167 nM. The same compound came in with an EC90 in the data set with Hepatitis C virus [2] of 740 nM. In addition, the values for the half-life at 1 µM (in the data set “in vitro”; in data set [4]; in data set [8]) were 8.8 min, 95 min and 4.4 min, respectively. In addition, the CC50 at 72 h in data set [5] was found to be 40000 nM. Further, in data set [13], the selectivity ratio came to 240. Besides, in [9], the concentration in solution (solubility at 4 h) came to 61 µM (≈ 52.3 µg/mL).
As a reminder, the Kp is the ratio of the level in a tissue or fluid to that in plasma or blood. Turning to `CC(=O)CC[C@H]1C(=O)N[C@@H](C(C)C)C(=O)N[C@@H](Cc2cccc(O)c2)C(=O)N2CCCC(N2)C(=O)O[C@H](/C(C)=C/C=C/C(=O)N2CCCCO2)C/C=C/C=C/[C@H](O)[C@H](C)[C@H]1O` (stereo partly specified), the 50% inhibitory concentration (IC50) in the data set with PBMC amounted to 1450 nM; in data set [11], 2.7 nM; in [12] it was 360 nM. For the same compound, the concentration ratio (Kp) at 24 h in [14] worked out at 3. The EC50 was 125 nM with Hepatitis C virus [2], 58 nM in the data set with Hepatitis C virus [3], 89 nM with Hepatitis C virus [6] and 63 nM in the data set with Hepatitis C virus [7]. In addition, in the data set with Hepatitis C virus [2], it took 690 nM to reach the 90% level (EC90). The Drug uptake with Liver came to 20 ng. The compound further had a logD at 1 h in “physchem” of 2.6. In addition, the “inhibition (INH)” value in data set [15] and in [18] was “Not Active” throughout. The half-life at 1 µM in the data set “in vitro” was found to be 5.8 min; in [4], 220 min; in data set [8], 10.6 min. For the same compound, the CC50 at 72 h in [5] was > 100000 nM. Further, in data set [13], the selectivity ratio was > 800. Besides, the outcome in the data set on Hepatitis C virus [16] was Active. In [17], the concentration at 24 h was determined as 20 ng/mL. The solubility at 4 h in data set [9] is > 100 µM.
